Reference: PubChem BioAssay (NCI)
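Test compounds were applied to cells in 96-well plates for 48 hours at 5 doses. Here, GI50 denotes the concentration required for 50% inhibition of growth. TGI is the concentration that stops growth completely.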

What was measured:
Assay in all cases: NCI tumour cell line growth inhibition, 48 h
[1] = system: 786-0 renal
[2] = system: A498 renal
[3] = system: A549 NSCLC
[4] = system: ACHN renal
[5] = system: BT-549 breast
[6] = system: CAKI-1 renal
[7] = system: COLO 205 colon
[8] = system: DU-145 prostate
[9] = system: EKVX NSCLC
[10] = system: HCC-2998 colon
[11] = system: HCT-116 colon
[12] = system: HCT-15 colon
[13] = system: HOP-62 NSCLC
[14] = system: HS 578T breast
[15] = system: HT29 colon
[16] = system: IGROV1 ovarian
[17] = system: K-562 leukemia
[18] = system: KM12 colon
[19] = system: LOX IMVI melanoma
[20] = system: M14 melanoma
[21] = system: MALME-3M melanoma
[22] = system: MCF7 breast
[23] = system: MDA-MB-231 breast
[24] = system: MDA-MB-435
[25] = system: MOLT-4 leukemia
[26] = system: NCI-H226 lung
[27] = system: NCI-H23 lung
[28] = system: NCI-H460 lung
[29] = system: NCI-H522 lung
[30] = system: NCI/ADR-RES ovarian
[31] = system: OVCAR-3 ovarian
[32] = system: OVCAR-4 ovarian
[33] = system: OVCAR-5 ovarian
[34] = system: OVCAR-8 ovarian
[35] = system: PC-3 prostate
[36] = system: SF-268 CNS
[37] = system: SF-295 CNS
[38] = system: SF-539 CNS
[39] = system: SK-MEL-2 melanoma
[40] = system: SK-MEL-28 melanoma
[41] = system: SK-MEL-5 melanoma
[42] = system: SK-OV-3 ovarian
[43] = system: SN12C renal
[44] = system: SNB-19 CNS
[45] = system: SNB-75 CNS
[46] = system: SW-620 colon
[47] = system: T-47D breast
[48] = system: TK-10 renal
[49] = system: U251 CNS
[50] = system: UACC-257 melanoma
[51] = system: UACC-62 melanoma
[52] = system: UO-31 renal

Structure (SMILES): CNC(=O)C(CCc1ccccc1)NC(=O)C(CC(=O)NO)CC(C)C (centres undefined)
- GI50 [1]: > 25 µM
- TGI [1]: > 25 µM
- GI50 [2]: > 25 µM
- TGI [2]: > 25 µM
- GI50 [3]: > 25 µM
- TGI [3]: > 25 µM
- GI50 [4]: > 25 µM
- TGI [4]: > 25 µM
- GI50 [5]: > 25 µM
- TGI [5]: > 25 µM
- GI50 [6]: > 25 µM
- TGI [6]: > 25 µM
- GI50 [7]: > 25 µM
- TGI [7]: > 25 µM
- GI50 [8]: > 25 µM
- TGI [8]: > 25 µM
- GI50 [9]: 8.31 µM
- TGI [9]: > 25 µM
- GI50 [10]: > 25 µM
- TGI [10]: > 25 µM
- GI50 [11]: > 25 µM
- TGI [11]: > 25 µM
- GI50 [12]: > 25 µM
- TGI [12]: > 25 µM
- GI50 [13]: > 25 µM
- TGI [13]: > 25 µM
- GI50 [14]: > 25 µM
- TGI [14]: > 25 µM
- GI50 [15]: > 25 µM
- TGI [15]: > 25 µM
- GI50 [16]: > 25 µM
- TGI [16]: > 25 µM
- GI50 [17]: 19.6 µM
- TGI [17]: > 25 µM
- GI50 [18]: > 25 µM
- TGI [18]: > 25 µM
- GI50 [19]: > 25 µM
- TGI [19]: > 25 µM
- GI50 [20]: > 25 µM
- TGI [20]: > 25 µM
- GI50 [21]: > 25 µM
- TGI [21]: > 25 µM
- GI50 [22]: > 25 µM
- TGI [22]: > 25 µM
- GI50 [23]: > 25 µM
- TGI [23]: > 25 µM
- GI50 [24]: > 25 µM
- TGI [24]: > 25 µM
- GI50 [25]: > 25 µM
- TGI [25]: > 25 µM
- GI50 [26]: > 25 µM
- TGI [26]: > 25 µM
- GI50 [27]: > 25 µM
- TGI [27]: > 25 µM
- GI50 [28]: > 25 µM
- TGI [28]: > 25 µM
- GI50 [29]: > 25 µM
- TGI [29]: > 25 µM
- GI50 [30]: > 25 µM
- TGI [30]: > 25 µM
- GI50 [31]: > 25 µM
- TGI [31]: > 25 µM
- GI50 [32]: > 25 µM
- TGI [32]: > 25 µM
- GI50 [33]: > 25 µM
- TGI [33]: > 25 µM
- GI50 [34]: > 25 µM
- TGI [34]: > 25 µM
- GI50 [35]: > 25 µM
- TGI [35]: > 25 µM
- GI50 [36]: > 25 µM
- TGI [36]: > 25 µM
- GI50 [37]: > 25 µM
- TGI [37]: > 25 µM
- GI50 [38]: > 25 µM
- TGI [38]: > 25 µM
- GI50 [39]: > 25 µM
- TGI [39]: > 25 µM
- GI50 [40]: > 25 µM
- TGI [40]: > 25 µM
- GI50 [41]: > 25 µM
- TGI [41]: > 25 µM
- GI50 [42]: > 25 µM
- TGI [42]: > 25 µM
- GI50 [43]: > 25 µM
- TGI [43]: > 25 µM
- GI50 [44]: > 25 µM
- TGI [44]: > 25 µM
- GI50 [45]: > 25 µM
- TGI [45]: > 25 µM
- GI50 [46]: > 25 µM
- TGI [46]: > 25 µM
- GI50 [47]: > 25 µM
- TGI [47]: > 25 µM
- GI50 [48]: > 25 µM
- TGI [48]: > 25 µM
- GI50 [49]: > 25 µM
- TGI [49]: > 25 µM
- GI50 [50]: > 25 µM
- TGI [50]: > 25 µM
- GI50 [51]: > 25 µM
- TGI [51]: > 25 µM
- GI50 [52]: > 25 µM
- TGI [52]: > 25 µM
